Reference: patent US20150238447A1, “BETA-HYDROXY-BETA-METHYLBUTRYIC ACID-CONTAINING COMPOSITIONS AND USES THEREOF” (ABBOTT LABORATORIES, priority 2012, published 2015)

Tested on: mice fed a high fat diet
Assay: motor (exploratory) activity in activity monitoring chamber, Opto-Varimex 4
Format: in vivo
Conditions: high fat diet plus Ca-HMB (170 or 340 mg/kg of drinking water) compared to high fat diet alone; 30 minutes observation
Method: The mice arrived at the facility at 21 days post birth and were divided into 6 groups after a seven day quarantine. There were 5 animals each. […] were placed on the following diets:
Group 1: High Fat Diet alone;
Group 2: High Fat Diet plus 500 mg of leucine/kg of drinking water;
Group 3: High Fat Diet plus 1000 mg of leucine/kg of drinking water;
Group 4: High Fat Diet plus 170 mg of Ca-HMB/kg of drinking water;
Group 5: High Fat Diet plus 340 mg of Ca-HMB/kg of drinking water; and
One week before the initiation of the study, the animals were acclimatized in the activity monitoring chamber, daily for half an hour. On the day of experiment, each set of animals were placed in the activity monitoring chamber (chamber 1 to 5) for half an hour. Motor activity of the mice in each group was monitored using the Actometry Apparatus: “Opto-Varimex 4” Auto-track system, Model No: 0271-004M. The motor activity of each mouse was monitored once in a week between 8:30 AM and 12:00 PM for 30 minutes. Six sets of “half an hour observations” were made for each of the 30 animals. The software captured motor activity parameters while the animals were in the activity monitoring chamber.

Structure (SMILES): CC(C)(O)CC(=O)O [HMB, beta-hydroxy-beta-methylbutyric acid]
- exploratory activity: enhanced exploratory activity
